# Experimental data from US4363805A, “Aminodesoxy-1.4;3.6-dianhydrohexitol nitrates and pharmaceutical composition” (Firma Willmar Schwabe, priority 1980, dated 1982).
# What was measured:
# [1] = tested on: isolated guinea pig hearts; assay: Experiments on Langendorff hearts (coronary flowthrough, inotropism, frequency); settings: Cavia porcellus, read-out: flowthrough, percentage change with regard to the initial value
# Method: After reaching the stationary state in the 30th minute, the hearts were each perfused with 50 ml. tyrode solution with a content of test substance of, in each case, 25 μg./ml. Each test substance was tested on 3-6 hearts.
# In each case, there was measured the inotropism, the flowthrough and the frequency, whereby the values given in Table I are average values of the percentage changes in comparison with the initial values.
# [2] = tested on: narcotised guinea pigs; assay: Blood pressure experiments on guinea pigs, i.v.; assay type: in vivo, guinea pig; settings: for blood pressure before: before administration
# [3] = Acute toxicity, intravenous, mice; assay type: in vivo; settings: mouse, in vivo; intravenous, within 24 hours; read-out: Evaluated LD50-range
# [4] = tested on: female NMRI-albino mice; assay: Acute toxicity, intravenous, mice; assay type: in vivo; settings: within 24 hours
# [5] = tested on: mongrel cats; assay: Inotropic and heart-circulatory effectiveness on narcotised cats, intravenous; assay type: in vivo, cat; settings: 6 animals; for blood pressure before / dp/dt (inotropism) before / heart frequency before: before administration
smiles,measurement,setting,value
"O=[N+]([O-])O[C@@H]1CO[C@H]2[C@@H]1OC[C@@H]2O [ISMN, 1.4;3.6-dianhydro-D-glucitol 2-nitrate, reference compound]",activation at 25 µg/mL,[1],9.11%
same,blood pressure Δ,[2]; 0.25 mg/kg i.v.,-3.70 mm.Hg
same,blood pressure Δ,[2]; 1.00 mg/kg i.v.,-6.30 mm.Hg
same,blood pressure Δ,[2]; 2.50 mg/kg i.v.,-10.90 mm.Hg
"CN(CCCc1ccccc1)[C@H]1CO[C@H]2[C@@H]1OC[C@@H]2O[N+](=O)[O-] [Example 21, 5-[N-Methyl-N-(3-phenylpropyl)-amino]-5-desoxy-1.4;3.6-dianhydro-L-iditol 2-nitrate]",LD50 at 24 h,[3],50 to 100 mg/kg
same,Frequency of death,[4]; 50 mg/kg i.v.,0/3
same,Frequency of death,[4]; 100 mg/kg i.v.,3/3
same,Frequency of death,[4]; 200 mg/kg i.v.,6/6
same,activation at 25 µg/mL,[1],117%
"CC(C)(C)C(=O)N[C@H]1CO[C@H]2[C@@H]1OC[C@@H]2O[N+](=O)[O-] [Example 5, 5-Pivaloylamino-5-desoxy-1.4;3.6-dianhydro-L-iditol 2-nitrate]",activation at 25 µg/mL,[1],21.2%
same,blood pressure after,[2]; 0.25 mg/kg i.v.,54.00 ± 2.52 mm.Hg
same,blood pressure Δ,[2]; 0.25 mg/kg i.v.,-10.50 mm.Hg
same,blood pressure before,[2]; 0.25 mg/kg i.v.,64.50 ± 2.75 mm.Hg
same,blood pressure after,[2]; 1.00 mg/kg i.v.,40.50 ± 3.66 mm.Hg
same,blood pressure Δ,[2]; 1.00 mg/kg i.v.,-22.75 mm.Hg
same,blood pressure after,[2]; 2.50 mg/kg i.v.,30.75 ± 8.60 mm.Hg
same,blood pressure Δ,[2]; 2.50 mg/kg i.v.,-31.75 mm.Hg
same,blood pressure-lowering effectiveness (in words),[2]; i.v.,stronger action than ISDN
CCN[C@H]1CO[C@H]2[C@@H]1OC[C@@H]2O[N+](=O)[O-] [10 b],activation at 25 µg/mL,[1],25.9%
same,blood pressure after,[2]; 0.25 mg/kg i.v.,37.25 ± 2.06 mm.Hg
same,blood pressure Δ,[2]; 0.25 mg/kg i.v.,-6.00 mm.Hg
same,blood pressure before,[2]; 0.25 mg/kg i.v.,43.25 ± 2.21 mm.Hg
same,blood pressure after,[2]; 1.00 mg/kg i.v.,32.00 ± 2.04 mm.Hg
same,blood pressure Δ,[2]; 1.00 mg/kg i.v.,-11.25 mm.Hg
same,blood pressure after,[2]; 2.50 mg/kg i.v.,27.25 ± 1.60 mm.Hg
same,blood pressure Δ,[2]; 2.50 mg/kg i.v.,-15.50 mm.Hg
"C=CCc1ccccc1OCC(O)CN[C@H]1CO[C@H]2[C@@H]1OC[C@@H]2O[N+](=O)[O-] (stereo partly drawn) [Example 49, 5-[2-Hydroxy-3-(2-allylphenoxy)-propylamino]-5-desoxy-1.4;3.6-dianhydro-L-iditol 2-nitrate]",blood pressure before,[5]; 0.25 mg/kg i.v.,116.6 mm.Hg
same,dp/dt (inotropism) before,[5]; 0.25 mg/kg i.v.,7840 mm.Hg/sec
same,heart frequency before,[5]; 0.25 mg/kg i.v.,200.4 min⁻¹
same,blood pressure WD,[5]; 0.25 mg/kg i.v.,2.8 min
same,blood pressure after,[5]; 0.25 mg/kg i.v.,113.6 mm.Hg
same,blood pressure Δ,[5]; 0.25 mg/kg i.v.,-3.0 mm.Hg
same,dp/dt (inotropism) after,[5]; 0.25 mg/kg i.v.,7360 mm.Hg/sec
same,dp/dt (inotropism) Δ,[5]; 0.25 mg/kg i.v.,-480 mm.Hg/sec
same,dp/dt WD,[5]; 0.25 mg/kg i.v.,3.1 min
same,heart frequency after,[5]; 0.25 mg/kg i.v.,201.2 min⁻¹
same,heart frequency Δ,[5]; 0.25 mg/kg i.v.,+0.8 min^-1
same,blood pressure WD,[5]; 0.50 mg/kg i.v.,3.7 min
same,blood pressure after,[5]; 0.50 mg/kg i.v.,110.6 mm.Hg
same,blood pressure Δ,[5]; 0.50 mg/kg i.v.,-9.2 mm.Hg
same,dp/dt (inotropism) after,[5]; 0.50 mg/kg i.v.,6540 mm.Hg/sec
same,dp/dt (inotropism) Δ,[5]; 0.50 mg/kg i.v.,-1060 mm.Hg/sec
same,dp/dt WD,[5]; 0.50 mg/kg i.v.,14.0 min
same,heart frequency after,[5]; 0.50 mg/kg i.v.,202.0 min⁻¹
same,heart frequency Δ,[5]; 0.50 mg/kg i.v.,+2.0 min^-1
same,blood pressure WD,[5]; 1.00 mg/kg i.v.,11.6 min
same,blood pressure after,[5]; 1.00 mg/kg i.v.,105.8 mm.Hg
same,blood pressure Δ,[5]; 1.00 mg/kg i.v.,-16.8 mm.Hg
same,dp/dt (inotropism) after,[5]; 1.00 mg/kg i.v.,4680 mm.Hg/sec
same,dp/dt (inotropism) Δ,[5]; 1.00 mg/kg i.v.,-2260 mm.Hg/sec
same,dp/dt WD,[5]; 1.00 mg/kg i.v.,> 40 min
same,heart frequency after,[5]; 1.00 mg/kg i.v.,188.4 min⁻¹
same,heart frequency Δ,[5]; 1.00 mg/kg i.v.,-5.6 min⁻¹
same,blood pressure WD,[5]; 2.50 mg/kg i.v.,> 10 min
same,blood pressure after,[5]; 2.50 mg/kg i.v.,86.6 mm.Hg
same,blood pressure Δ,[5]; 2.50 mg/kg i.v.,-35.0 mm.Hg
same,dp/dt (inotropism) after,[5]; 2.50 mg/kg i.v.,3780 mm.Hg/sec
same,dp/dt (inotropism) Δ,[5]; 2.50 mg/kg i.v.,-2900 mm.Hg/sec
same,dp/dt WD,[5]; 2.50 mg/kg i.v.,> 10 min
same,heart frequency after,[5]; 2.50 mg/kg i.v.,170.4 min⁻¹
same,heart frequency Δ,[5]; 2.50 mg/kg i.v.,-20.8 min⁻¹
same,activation at 25 µg/mL,[1],191%
same,blood pressure after,[2]; 0.25 mg/kg i.v.,43.50 ± 3.38 mm.Hg
same,blood pressure Δ,[2]; 0.25 mg/kg i.v.,-2.25 mm.Hg
same,blood pressure before,[2]; 0.25 mg/kg i.v.,45.75 ± 2.53 mm.Hg
same,blood pressure after,[2]; 1.00 mg/kg i.v.,30.25 ± 1.70 mm.Hg
same,blood pressure Δ,[2]; 1.00 mg/kg i.v.,-12.75 mm.Hg
same,blood pressure after,[2]; 2.50 mg/kg i.v.,20.25 ± 1.03 mm.Hg
same,blood pressure Δ,[2]; 2.50 mg/kg i.v.,-22.50 mm.Hg
"O=[N+]([O-])O[C@H]1CO[C@H]2[C@@H]1OC[C@@H]2NCC(O)COc1cccc2ccccc12 (stereo partly drawn) [Example 54, 5-[2-Hydroxy-3-(1-naphthyloxy)-propylamino]-5-desoxy-1.4;3.6-dianhydro-L-iditol 2-nitrate]",blood pressure before,[5]; 0.25 mg/kg i.v.,115.2 mm.Hg
same,dp/dt (inotropism) before,[5]; 0.25 mg/kg i.v.,8783 mm.Hg/sec
same,heart frequency before,[5]; 0.25 mg/kg i.v.,188.7 min⁻¹
same,blood pressure WD,[5]; 0.25 mg/kg i.v.,1.9 min
same,blood pressure after,[5]; 0.25 mg/kg i.v.,103.8 mm.Hg
same,blood pressure Δ,[5]; 0.25 mg/kg i.v.,-11.4 mm.Hg
same,dp/dt (inotropism) after,[5]; 0.25 mg/kg i.v.,8150 mm.Hg/sec
same,dp/dt (inotropism) Δ,[5]; 0.25 mg/kg i.v.,-633 mm.Hg/sec
same,dp/dt WD,[5]; 0.25 mg/kg i.v.,3.9 min
same,heart frequency after,[5]; 0.25 mg/kg i.v.,187.7 min⁻¹
same,heart frequency Δ,[5]; 0.25 mg/kg i.v.,-1.0 min⁻¹
same,blood pressure WD,[5]; 0.50 mg/kg i.v.,3.2 min
same,blood pressure after,[5]; 0.50 mg/kg i.v.,101.8 mm.Hg
same,blood pressure Δ,[5]; 0.50 mg/kg i.v.,-15.9 mm.Hg
same,dp/dt (inotropism) after,[5]; 0.50 mg/kg i.v.,6833 mm.Hg/sec
same,dp/dt (inotropism) Δ,[5]; 0.50 mg/kg i.v.,-1934 mm.Hg/sec
same,dp/dt WD,[5]; 0.50 mg/kg i.v.,7.6 min
same,heart frequency after,[5]; 0.50 mg/kg i.v.,186.7 min⁻¹
same,heart frequency Δ,[5]; 0.50 mg/kg i.v.,-0.7 min⁻¹
same,blood pressure WD,[5]; 1.00 mg/kg i.v.,5.6 min
same,blood pressure after,[5]; 1.00 mg/kg i.v.,91.0 mm.Hg
same,blood pressure Δ,[5]; 1.00 mg/kg i.v.,-27.8 mm.Hg
same,dp/dt (inotropism) after,[5]; 1.00 mg/kg i.v.,5050 mm.Hg/sec
same,dp/dt (inotropism) Δ,[5]; 1.00 mg/kg i.v.,-3283 mm.Hg/sec
same,dp/dt WD,[5]; 1.00 mg/kg i.v.,15.2 min
same,heart frequency after,[5]; 1.00 mg/kg i.v.,172.0 min⁻¹
same,heart frequency Δ,[5]; 1.00 mg/kg i.v.,-12.0 min⁻¹
same,blood pressure WD,[5]; 2.50 mg/kg i.v.,6.4 min
same,blood pressure after,[5]; 2.50 mg/kg i.v.,78.5 mm.Hg
same,blood pressure Δ,[5]; 2.50 mg/kg i.v.,-44.8 mm.Hg
same,dp/dt (inotropism) after,[5]; 2.50 mg/kg i.v.,2817 mm.Hg/sec
same,dp/dt (inotropism) Δ,[5]; 2.50 mg/kg i.v.,-5183 mm.Hg/sec
same,dp/dt WD,[5]; 2.50 mg/kg i.v.,> 10 min
same,heart frequency after,[5]; 2.50 mg/kg i.v.,158.3 min⁻¹
same,heart frequency Δ,[5]; 2.50 mg/kg i.v.,-20.0 min⁻¹
same,activation at 25 µg/mL,[1],274%
same,blood pressure after,[2]; 0.25 mg/kg i.v.,62.25 ± 8.05 mm.Hg
same,blood pressure Δ,[2]; 0.25 mg/kg i.v.,-4.75 mm.Hg
same,blood pressure before,[2]; 0.25 mg/kg i.v.,67.00 ± 4.51 mm.Hg
same,blood pressure after,[2]; 1.00 mg/kg i.v.,56.50 ± 4.97 mm.Hg
same,blood pressure Δ,[2]; 1.00 mg/kg i.v.,-10.75 mm.Hg
same,blood pressure after,[2]; 2.50 mg/kg i.v.,44.75 ± 4.50 mm.Hg
same,blood pressure Δ,[2]; 2.50 mg/kg i.v.,-23.75 mm.Hg
"CN(CCCOc1ccccc1)[C@H]1CO[C@H]2[C@@H]1OC[C@@H]2O[N+](=O)[O-] [Example 34, 5-[N-Methyl-N-(3-phenoxypropyl)-amino]-5-desoxy-1.4;3.6-dianhydro-L-iditol 2-nitrate]",blood pressure before,[5]; 0.25 mg/kg i.v.,95.2 mm.Hg
same,dp/dt (inotropism) before,[5]; 0.25 mg/kg i.v.,5333 mm.Hg/sec
same,heart frequency before,[5]; 0.25 mg/kg i.v.,180.3 min⁻¹
same,blood pressure WD,[5]; 0.25 mg/kg i.v.,4.1 min
same,blood pressure after,[5]; 0.25 mg/kg i.v.,73.7 mm.Hg
same,blood pressure Δ,[5]; 0.25 mg/kg i.v.,-21.5 mm.Hg
same,dp/dt (inotropism) after,[5]; 0.25 mg/kg i.v.,4650 mm.Hg/sec
same,dp/dt (inotropism) Δ,[5]; 0.25 mg/kg i.v.,-683 mm.Hg/sec
same,dp/dt WD,[5]; 0.25 mg/kg i.v.,2.8 min
same,heart frequency after,[5]; 0.25 mg/kg i.v.,179.3 min⁻¹
same,heart frequency Δ,[5]; 0.25 mg/kg i.v.,-1.0 min⁻¹
same,blood pressure WD,[5]; 0.50 mg/kg i.v.,4.2 min
same,blood pressure after,[5]; 0.50 mg/kg i.v.,74.8 mm.Hg
same,blood pressure Δ,[5]; 0.50 mg/kg i.v.,-24.2 mm.Hg
same,dp/dt (inotropism) after,[5]; 0.50 mg/kg i.v.,4683 mm.Hg/sec
same,dp/dt (inotropism) Δ,[5]; 0.50 mg/kg i.v.,-817 mm.Hg/sec
same,dp/dt WD,[5]; 0.50 mg/kg i.v.,"3,7 min"
same,heart frequency after,[5]; 0.50 mg/kg i.v.,178.0 min⁻¹
same,heart frequency Δ,[5]; 0.50 mg/kg i.v.,-1.0 min⁻¹
same,blood pressure WD,[5]; 1.00 mg/kg i.v.,6.5 min
same,blood pressure after,[5]; 1.00 mg/kg i.v.,74.5 mm.Hg
same,blood pressure Δ,[5]; 1.00 mg/kg i.v.,-30.8 mm.Hg
same,dp/dt (inotropism) after,[5]; 1.00 mg/kg i.v.,4400 mm.Hg/sec
same,dp/dt (inotropism) Δ,[5]; 1.00 mg/kg i.v.,-1033 mm.Hg/sec
same,dp/dt WD,[5]; 1.00 mg/kg i.v.,4.2 min
same,heart frequency after,[5]; 1.00 mg/kg i.v.,172.0 min⁻¹
same,heart frequency Δ,[5]; 1.00 mg/kg i.v.,-3.0 min⁻¹
same,blood pressure WD,[5]; 2.50 mg/kg i.v.,> 9.0 min
same,blood pressure after,[5]; 2.50 mg/kg i.v.,69.2 mm.Hg
same,blood pressure Δ,[5]; 2.50 mg/kg i.v.,-39.7 mm.Hg
same,dp/dt (inotropism) after,[5]; 2.50 mg/kg i.v.,3850 mm.Hg/sec
same,dp/dt (inotropism) Δ,[5]; 2.50 mg/kg i.v.,-1450 mm.Hg/sec
same,dp/dt WD,[5]; 2.50 mg/kg i.v.,> 6.5 min
same,heart frequency after,[5]; 2.50 mg/kg i.v.,158.0 min⁻¹
same,heart frequency Δ,[5]; 2.50 mg/kg i.v.,-15.0 min⁻¹
same,activation at 25 µg/mL,[1],50%
